Publication PMC10396955, “2-Oxabicyclo[2.1.1]hexanes as saturated bioisosteres of the ortho-substituted phenyl ring” (Nature Chemistry, 2023)
Converted amounts (≈) assume the structure as drawn. Where two headings read alike, the source gives them in different places.

Assays:
[1] = tested on: human liver microsomes; assay: Metabolic stability in human liver microsomes; format: in vitro ADME
Protocol: (§1) The data acquisition and system control was performed using Analyst 1.6.3 software from AB Sciex. Methods Microsomal incubations were carried out in 96-well plates in 5 aliquots of 30 μL each (one for each time point). […] In the control reactions the NADPH-cofactor system was substituted with phosphate buffer. […] Each reaction was performed in duplicates. Five time points over 40 minutes were analyzed. The reactions were stopped by adding 4 volumes of methanol containing internal standard to incubation aliquots, followed by protein sedimentation by centrifuging at 5500 rpm for 4 minutes. […]. Supernatants were analyzed using the HPLC system coupled with tandem mass spectrometer. […] In some cases, the last time point is excluded from the calculations to ensure acceptable logarithmic linearity of decay.

[2] = Metabolic stability in human liver microsomes; format: in vitro ADME; conditions: both sexes
Protocol: as §1

[3] = tested on: Fusarium oxysporum; assay: Antifungal susceptibility testing (MIC, CLSI M38-A2 microdilution); format: cell-based
Protocol: (§2) page 252: Antifungal susceptibility testing (determination of MIC values) The antifungal susceptibility tests were performed according to the Clinical and Laboratory Standards Institute (CLSI) […]-A2 protocol for mycelial fungi (1). Stock solutions were prepared by dissolving an appropriate amount of testing compounds in DMSO. Solutions of test compounds were added to the wells of a 96-well polystyrene microtiter plate (Colstar, USA) in the concentration range from 0.5 to 0.001 mg/mL. Mycelium growth was monitored photometrically at 490 nm by measuring the optical density of each well. Measurements were carried out two times: immediately after adding all components (RPMI 1640 broth, conidial suspension, test compound solutions) and after incubation plate at 26 °C for 48 h (2). MICs were the lowest testing compound concentrations that produced partial growth inhibition (50% of optical density relative to the control without testing compounds). The tests were performed in triplicate Results : Table S6. The MIC values of Fluxapyroxad , Boscalid , and their saturated analogues against Fusarium oxysporum , and Fusarium verticillioides Antifungal compaunds MIC, mg/mL Fusarium oxysporum Fusarium verticillioides Fluxapyroxad -* 0.250 Analogue (±)- 28 0.125 0.125 […] of 0.063 mg/mL. […]

[4] = tested on: Fusarium verticillioides; assay: as above; format: cell-based
Protocol: as §2

[5] = physchem; format: physicochemical; conditions: for D (partition ratio), incubation 1 / D (partition ratio), incubation 2 / D (partition ratio), incubation 3: Table S2, n-octanol/PBS pH 7.4
Protocol: Determination of Distribution Coefficient (LogD, pH 7.4) […]
n-octanol – phosphate buffered saline (PBS), pH 7.4. Distribution coefficient (or LogD) is a […]
Phosphate buffered saline, tablet (Sigma-Aldrich, USA; Cat # P4417)
Acetic acid (Enamine, Ukraine.)
DMSO stock solutions of the test compounds 10mM
Gradient HPLC system (Shimadzu, Japan)
MTR22 Multi Mix Rotator (UNICO, USA)
Laboratory Centrifuge, Sigma 4-15C, Qiagen (SIGMA GmbH, Germany) […]
allowed to mix in a rotator for 1 h at 30 rpm. Phase separation was assured by centrifugation for […]
dilution. The samples (both phases) were analyzed using a HPLC system coupled with a tandem mass spectrometer. Mebendazole was used as a reference compound. […]
where: SO – peak area of the analyte in octanol phase
S P – peak area of the analyte in PBS buffer do – dilution coefficient for octanol phase dp – dilution coefficient for aqueous phase

[6] = human, liver microsomes, pH 7.4, human liver microsomes, 2 μM, 37 °C, with NADPH, 7 min
[7] = human, liver microsomes, pH 7.4, human liver microsomes, 2 μM, 37 °C, with NADPH, 15 min
[8] = human, liver microsomes, pH 7.4, human liver microsomes, 2 μM, 37 °C, with NADPH, 25 min, read-out: % Remaining, Mean of 2
[9] = human, liver microsomes, pH 7.4, human liver microsomes, 2 μM, 37 °C, with NADPH, 40 min, read-out: % Remaining, Mean of 2
[10] = human, liver microsomes, pH 7.4, human liver microsomes, 0.42 mg protein per ml, Table S3, * approximate due to high stability, read-out: Clint
[11] = human, liver microsomes, pH 7.4, human liver microsomes, * approximate due to high stability, read-out: t1/2
[12] = pH 7.4, human liver microsomes, no NADPH cofactor, 40 min, ** instability partially or completely not determined by CYP450 activity, read-out: % Remaining without cofactor, Mean of 2
[13] = pH 7.4, human liver microsomes, elimination constant, * approximate due to high stability, read-out: kel (converted)
[14] = Table S6, lowest concentration giving 50% of optical density relative to control, 26 °C, 48 h
[15] = Fusarium verticillioides, 48 h, Table S6, lowest concentration giving 50% of optical density relative to control, 26 °C, 48 h, read-out: MIC
[16] = Fusarium verticillioides, Fig. 4e, read-out: MIC
[17] = pH 7.4, LogD, pH 7.4, incubation 1
[18] = pH 7.4, LogD, pH 7.4, incubation 3
[19] = pH 7.4, LogD, pH 7.4, incubation 2
[20] = human, microsomes, pH 7.4, % Remaining without cofactor, Mean of 2
[21] = human, microsomes, pH 7.4, % Remaining, Mean of 2
[22] = human, microsomes, pH 7.4, Clint
[23] = human, microsomes, pH 7.4, t1/2

Row | SMILES | CIint, intrinsic clearance ([1]; human liver microsomes) [µL/min/mg] | remaining at […], 2 µM [2, 6] [%] | remaining at […], 2 µM [2, 7] [%] | remaining at 25 min, 2 µM [2, 8] [%] | remaining at 40 min, 2 µM [2, 9] [%] | microsomal CLint at 2 µM [2, 10] [µL/min/mg] | half-life at 2 µM [2, 11] [h] | remaining at 40 min, 2 µM [2, 12] [%] | k el at 2 µM [2, 13] [s⁻¹] | MIC ([3]; Fig. 4e) [µg/mL] | MIC [3, 14] [µg/mL] | MIC [4, 15] [µg/mL] | D (partition ratio), incubation 1 [5] | D (partition ratio), incubation 2 [5] | D (partition ratio), incubation 3 [5] | logD at 1 h ([5]; pH 7.4, LogD, pH 7.4 (mean)) | logD at 1 h [5, 17] | logD at 1 h [5, 18] | logD at 1 h ([5]; pH 7.4, logD (7.4)) | logD at 1 h [5, 19] | further results
1 | Cn1cc(C(=O)N[C@@H]2[C@@H]3CC[C@@]2(c2cc(F)c(F)c(F)c2)C3)c(C(F)F)n1 (relative stereo) [Compound 28] | 35 | 78 | 72 | 57 | 55 | 35 | 0.79 | 99 | 0.00025 | 125 (≈ 324 µM) | 125 (≈ 324 µM) | 125 (≈ 324 µM) | 3.24E+04 | 2.00E+04 | 1.32E+04 | 4.32 | 4.51 | 4.12 | 4.3 |  | MIC [4, 16]: 125 µg/mL (≈ 324 µM)
2 | Cn1cc(C(=O)N[C@@H]2[C@H]3C[C@]2(c2cc(F)c(F)c(F)c2)CO3)c(C(F)F)n1 (relative stereo) [Compound 29] | 23 | 106 | 93 | 83 | 72 | 23 | 1.22 | 89 | 0.00015 |  |  | 250 (≈ 645 µM) | 5.70E+02 | 6.13E+02 | 5.77E+02 | 2.77 | 2.76 | 2.76 | 2.8 | 2.79 | inhibition at 125 µg/mL ([3]; at a concentration of 0.125 mg/mL, MIC not reached, read-out: Maximal inhibition of growth): 35.7 ± 2.4%; MIC [4, 16]: 250 µg/mL (≈ 645 µM)
3 | O=C(N[C@@H]1[C@@H]2CC[C@@]1(c1ccc(Cl)cc1)C2)c1cccnc1Cl (relative stereo) [Compound 30] | 12 | 94 | 95 | 90 | 80 | 12 | 2.31 | 71 | 8.33e-05 | 31 (≈ 89.3 µM) | 31 (≈ 89.3 µM) | 31 (≈ 89.3 µM) | 4.87E+02 | 3.16E+02 | 6.11E+02 | 2.66 | 2.69 | 2.79 | 3.5 ± 0.1 | 2.5 | MIC ([4]; Fig. 4e): 0.031 mg ml^–1
4 | O=C(N[C@@H]1[C@H]2C[C@]1(c1ccc(Cl)cc1)CO2)c1cccnc1Cl (relative stereo) [Compound 31] | 3 | 107 | 110 | 107 | 108 | ~3 | ~8.09 | 85 |  | 250 (≈ 716 µM) | 250 (≈ 716 µM) |  | 3.05E+03 | 3.16E+03 | 3.13E+03 | 3.5 | 3.48 | 3.5 | 2.7 ± 0.2 | 3.5 | microsomal CLint at 2 µM ([2]; human, liver microsomes, pH 7.4, human liver microsomes, Fig. 3, read-out: CIint, intrinsic clearance): 3 µL/min/mg; inhibition at 250 µg/mL ([4]; Fusarium verticillioides, read-out: Maximal inhibition of growth): 36.3 ± 1.9%; melting point: 147 to 148 °C
5 | O=C(Nc1ccccc1-c1ccc(Cl)cc1)c1cccnc1Cl [Boscalid, reference compound] |  |  |  |  |  |  |  |  |  | 250 (≈ 728 µM) | 250 (≈ 728 µM) |  | 3.62E+03 | 2.86E+03 | 4.07E+03 | 3.55 | 3.56 | 3.61 | 3.6 | 3.46 | CIint, intrinsic clearance ([1]; human, microsomes): 26 µL/min/mg; remaining at 40 min, 2 µM [2, 20]: 59%; remaining at 25 min, 2 µM [2, 21]: 75%; remaining at 40 min, 2 µM [2, 21]: 66%; microsomal CLint at 2 µM [2, 22]: 26 µL/min/mg; half-life at 2 µM [2, 23]: 1.06 h; k el at 2 µM ([2]; human, pH 7.4): 0.000183 s⁻¹; inhibition at 63 µg/mL ([4]; Fusarium verticillioides, at a concentration of 0.063 mg/mL, MIC not reached, read-out: Maximal inhibition of growth): 39.2 ± 2.7%
6 | Cn1cc(C(=O)Nc2ccccc2-c2cc(F)c(F)c(F)c2)c(C(F)F)n1 [Fluxapyroxad, reference compound] |  |  |  |  |  |  |  |  |  |  |  | 250 (≈ 656 µM) | 3.37E+03 | 2.99E+03 | 3.24E+03 | 3.51 | 3.53 | 3.51 | 3.5 | 3.48 | CIint, intrinsic clearance ([1]; human, microsomes): 28 µL/min/mg; remaining at 40 min, 2 µM [2, 20]: 79%; remaining at 25 min, 2 µM [2, 21]: 73%; remaining at 40 min, 2 µM [2, 21]: 63%; microsomal CLint at 2 µM [2, 22]: 28 µL/min/mg; half-life at 2 µM [2, 23]: 0.983 h; k el at 2 µM ([2]; human, pH 7.4): 0.0002 s⁻¹; inhibition at 31 µg/mL ([3]; at a concentration of 0.031 mg/mL, MIC not reached, read-out: Maximal inhibition of growth): 38 ± 1.9%; MIC [4, 16]: 250 µg/mL (≈ 656 µM)
